# Data as given in ChEMBL document CHEMBL1201862, “PubChem BioAssay data set” (2004).
#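 Five compound concentrations were applied to cells in 96-well plates for 48 hours; endpoints were derived by simple linear interpolation of the resulting dose-response curve. GI50: concentration for 50% inhibition of growth.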 The source made the active and inactive calls. Cut-off read from the data, not from the text of the source: active = GI50 up to about 1.1 µM and inactive = higher.
# Columns and labels:
# Experiment in all cases: NCI anticancer screen, dose series, 48 h
# K562 = test system: K562
# OVCAR-3 = test system: OVCAR-3
# SNB-75 = test system: SNB-75
# IGROV-1 = test system: IGROV-1
# OVCAR-8 = test system: OVCAR-8
# Malme-3M = test system: Malme-3M
# KM-20L2 = test system: KM-20L2
# M14 = test system: M14
# HOP-62 = test system: HOP-62
# HL-60 = test system: HL-60
# OVCAR-4 = test system: OVCAR-4
# A549 = test system: A549
# OVCAR-5 = test system: OVCAR-5
# HCT-15 = test system: HCT-15
# SNB-78 = test system: SNB-78
# DMS-114 = test system: DMS-114
# UACC-62 = test system: UACC-62
# NCI/ADR-RES = test system: NCI/ADR-RES
SMILES,GI50 (K562),GI50 (OVCAR-3),GI50 (SNB-75),GI50 (IGROV-1),GI50 (OVCAR-8),GI50 (Malme-3M),GI50 (KM-20L2),GI50 (M14),GI50 (HOP-62),GI50 (HL-60),GI50 (OVCAR-4),GI50 (A549),GI50 (OVCAR-5),GI50 (HCT-15) [µM],GI50 (SNB-78),GI50 (DMS-114),GI50 (UACC-62),GI50 (NCI/ADR-RES)
COC(=O)Cc1nn2c(nc1=O)sc1ccc3ccccc3c12,> 100 µM (inactive),> 100 µM (inactive),37.3 µM (inactive),> 100 µM (inactive),43.2 µM (inactive),> 100 µM (inactive),> 100 µM (inactive),> 100 µM (inactive),72.1 µM (inactive),> 100 µM (inactive),> 100 µM (inactive),> 100 µM (inactive),> 100 µM (inactive),> 100,–,–,–,–
COC1(OC)CC2C=C(S(=O)(=O)c3ccccc3)C1N(Cc1ccccc1)C2=O (stereo not given),35 µM (inactive),17.1 µM (inactive),36.5 µM (inactive),37.2 µM (inactive),23 µM (inactive),24.9 µM (inactive),28.9 µM (inactive),18.9 µM (inactive),97.7 µM (inactive),16.2 µM (inactive),29.2 µM (inactive),33 µM (inactive),–,–,21.2 µM (inactive),20.3 µM (inactive),20.2 µM (inactive),–
COc1ccc(C2SCC(=O)N2NC(=O)c2ccncc2)cc1F (stereo not given),–,–,> 100 µM (inactive),–,–,> 100 µM (inactive),> 100 µM (inactive),> 100 µM (inactive),> 100 µM (inactive),> 100 µM (inactive),> 100 µM (inactive),> 100 µM (inactive),> 100 µM (inactive),> 100,> 100 µM (inactive),> 100 µM (inactive),–,–
NC(=O)N/C=C1\C(=O)Oc2ccccc2C1=O,> 100 µM (inactive),84.7 µM (inactive),–,> 100 µM (inactive),> 100 µM (inactive),–,86.5 µM (inactive),82.8 µM (inactive),> 100 µM (inactive),53.8 µM (inactive),> 100 µM (inactive),10 µM (inactive),35.3 µM (inactive),48.5,43.2 µM (inactive),> 100 µM (inactive),77.8 µM (inactive),–
O=C1C=CC2(C=C1)C[C@H](NC(=O)C(F)(F)F)C(=O)O2,20.4 µM (inactive),> 100 µM (inactive),69 µM (inactive),–,37.2 µM (inactive),19.8 µM (inactive),> 100 µM (inactive),73.8 µM (inactive),> 100 µM (inactive),14.2 µM (inactive),> 100 µM (inactive),> 100 µM (inactive),> 100 µM (inactive),31.6,> 100 µM (inactive),64.6 µM (inactive),18.1 µM (inactive),–
Cc1ccc([Se][Se]c2ccc(C)cc2)cc1,5.04 µM (inactive),31.6 µM (inactive),7.91 µM (inactive),38.3 µM (inactive),45.3 µM (inactive),32.4 µM (inactive),38.6 µM (inactive),> 10 µM (inactive),> 100 µM (inactive),4.02 µM (inactive),12.5 µM (inactive),33.3 µM (inactive),–,9.35,16.5 µM (inactive),11.6 µM (inactive),9.4 µM (inactive),–
CCOc1ccccc1NC(=O)/C=C1\NC(=O)CS1,> 100 µM (inactive),> 100 µM (inactive),26.9 µM (inactive),> 100 µM (inactive),> 100 µM (inactive),50.5 µM (inactive),> 100 µM (inactive),> 100 µM (inactive),> 100 µM (inactive),> 100 µM (inactive),> 100 µM (inactive),> 100 µM (inactive),> 100 µM (inactive),–,> 100 µM (inactive),> 100 µM (inactive),> 100 µM (inactive),–
O=S(=O)(O)c1cc(/N=[N+](\[O-])c2ccc(/N=N/c3ccccc3)cc2S(=O)(=O)O)ccc1/C=C/c1ccc(/N=[N+](\[O-])c2ccc(/N=N/c3ccccc3)cc2S(=O)(=O)O)cc1S(=O)(=O)O,> 100 µM (inactive),> 100 µM (inactive),72.8 µM (inactive),> 100 µM (inactive),> 100 µM (inactive),> 100 µM (inactive),–,–,> 100 µM (inactive),> 100 µM (inactive),> 87.3 µM (inactive),> 100 µM (inactive),> 100 µM (inactive),> 100,> 100 µM (inactive),> 100 µM (inactive),> 100 µM (inactive),> 100 µM (inactive)
COc1cc(-c2cc(=O)c3c(O)c(OC)c(OC)c(OC)c3o2)ccc1O,17.8 µM (inactive),32.1 µM (inactive),–,4.84 µM (inactive),16.3 µM (inactive),28.7 µM (inactive),40.2 µM (inactive),23.3 µM (inactive),21.6 µM (inactive),31.3 µM (inactive),–,27.3 µM (inactive),> 100 µM (inactive),7.74,27.7 µM (inactive),23.9 µM (inactive),14.8 µM (inactive),–
